Data: ChEMBL document CHEMBL4431294 (Medchemcomm, 2016)
pKd: −log10 of the molar value. In brackets after ≈: the same amount, converted by molar mass.

How the values were obtained:
[1] = Binding affinity to pre-microRNA-27a (unknwon origin) at 500 nM by spectrofluorometric method
[2] = test system: Bordetella bronchiseptica; experiment: Antibacterial activity against Bordetella bronchiseptica; assay type: functional
[3] = test system: Mycobacterium tuberculosis; experiment: Antibacterial activity against Mycobacterium tuberculosis 607; assay type: functional
Klebsiella pneumoniae [4] = experiment: Antibacterial activity against Klebsiella pneumoniae; assay type: functional
Proteus vulgaris = experiment: Antibacterial activity against Proteus vulgaris; assay type: functional
[5] = test system: Salmonella enterica subsp. enterica serovar Paratyphi B; experiment: Antibacterial activity against Salmonella schottmuelleri; assay type: functional
Escherichia coli [6] = experiment: Antibacterial activity against Escherichia coli; assay type: functional
Bacillus subtilis = experiment: Antibacterial activity against Bacillus subtilis; assay type: functional
[7] = Antibacterial activity against Eberthella typhosa; assay type: functional
Staphylococcus aureus [8] = experiment: Antibacterial activity against Staphylococcus aureus; assay type: functional
[9] = biological target: Rev responsive element (RRE) RNA; experiment: Displacement of fluorescein-labeled RevF1 from HIV1 66-nucleotide RRE RNA by fluorescence anisotropy method; assay type: nucleic-acid assay, Human immunodeficiency virus 1
Staphylococcus aureus [10] = experiment: Antibacterial activity against Staphylococcus aureus ATCC 29213; assay type: functional
Klebsiella pneumoniae [11] = experiment: Antibacterial activity against Klebsiella pneumoniae ATCC 10031; assay type: functional
Pseudomonas aeruginosa [12] = experiment: Antibacterial activity against Pseudomonas aeruginosa ATCC 27853 harboring APH(3'); assay type: functional
Staphylococcus aureus [13] = experiment: Antibacterial activity against Staphylococcus aureus harboring ANT(4'); assay type: functional
Escherichia coli [14] = experiment: Antibacterial activity against Escherichia coli ATCC 25922; assay type: functional
[15] = Binding affinity to 22-mer TAT triplex DNA (unknown origin) at 8 uM by isothermal titration calorimetry
Pseudomonas aeruginosa [16] = experiment: Antibacterial activity against Pseudomonas aeruginosa after 12 hrs; assay type: functional, organism-based

Work on `CN1CCN(c2ccc3nc(-c4ccc5[nH]c(-c6ccc(OCc7cn(CCCCC(=O)C(CCn8cc(OCc9cn(C[C@H]%10O[C@@H](O[C@@H]%11[C@@H](O)[C@H](N)C[C@H](N)[C@H]%11O[C@H]%11O[C@H](CN)[C@@H](O)[C@H](O)[C@H]%11N)[C@H](O)[C@@H]%10O[C@H]%10O[C@@H](CN)[C@@H](O)[C@H](O)[C@H]%10N)nn9)nn8)CCn8cc(OCc9cn(C[C@H]%10O[C@@H](O[C@@H]%11[C@@H](O)[C@H](N)C[C@H](N)[C@H]%11O[C@H]%11O[C@H](CN)[C@@H](O)[C@H](O)[C@H]%11N)[C@H](O)[C@@H]%10O[C@H]%10O[C@@H](CN)[C@@H](O)[C@H](O)[C@H]%10N)nn9)nn8)nn7)cc6)cc5c4)[nH]c3c2)CC1` yielded a Ka [1] of 1.2 to 7.4 ×10⁸ /M.

Compound `NCC1O[C@H](O[C@H]2[C@@H](O)[C@H](O[C@@H]3[C@@H](O)[C@H](N)C[C@H](N)[C@H]3O[C@H]3O[C@H](CN)[C@@H](O)[C@H](O)[C@H]3N)O[C@@H]2CO)[C@H](N)[C@@H](O)[C@@H]1O` (some centres not stated) has an MIC [2] of 0.5 µg/mL (≈ 0.813 µM), an MIC [3] of 0.33 µg/mL (≈ 0.537 µM) and an MIC (Klebsiella pneumoniae [4]) of 0.05 µg/mL (≈ 0.0813 µM). For the same compound, the MIC (Proteus vulgaris) was 1 µg/mL (≈ 1.63 µM), the MIC [5] was 0.1 µg/mL (≈ 0.163 µM) and the MIC (Escherichia coli [6]) was 0.1 µg/mL (≈ 0.163 µM). It also gave an MIC (Bacillus subtilis) of 0.01 µg/mL (≈ 0.0163 µM), an MIC [7] of 0.033 µg/mL (≈ 0.0537 µM) and an MIC (Staphylococcus aureus [8]) of 0.017 µg/mL (≈ 0.0277 µM).

`NCC1O[C@H](O[C@H]2[C@@H](O)[C@H](O[C@@H]3[C@@H](O)[C@H](N)C[C@H](N)[C@H]3O[C@H]3O[C@H](CN)[C@@H](O)[C@H](O)[C@H]3N)O[C@@H]2CNc2c3ccccc3nc3ccccc23)[C@H](N)[C@@H](O)[C@@H]1O` (some centres not stated) gave a pKd [9] of at least 8.00.

With `NCC1=CC[C@@H](N)[C@@H](O[C@H]2[C@H](O[C@@H]3O[C@H](CO)[C@@H](O[C@H]4O[C@@H](CN)[C@@H](O)[C@H](O)[C@H]4N)[C@H]3O)[C@@H](O)[C@H](N)C[C@@H]2N)O1` the MIC (Staphylococcus aureus [10]) was 0.5 to 2 µg/mL (≈ 0.861 to 3.44 µM), the MIC (Klebsiella pneumoniae [11]) was 0.5 to 2 µg/mL (≈ 0.861 to 3.44 µM) and the MIC (Pseudomonas aeruginosa [12]) was 0.5 to 2 µg/mL (≈ 0.861 to 3.44 µM). For the same compound, the MIC (Staphylococcus aureus [13]) was 0.5 to 2 µg/mL (≈ 0.861 to 3.44 µM) and the MIC (Escherichia coli [14]) was 0.5 to 2 µg/mL (≈ 0.861 to 3.44 µM).

Work on `CC(=O)c1ccc2c(ccc3nc4c(NCCCNC(=O)NCCSC[C@H]5O[C@@H](O[C@@H]6[C@@H](O)[C@H](N)C[C@H](N)[C@H]6O[C@H]6O[C@H](CN)[C@@H](O)[C@H](O)[C@H]6N)[C@H](O)[C@@H]5O[C@H]5OC(CN)[C@@H](O)[C@H](O)[C@H]5N)nc5ccccc5c4nc32)c1` (some centres not stated) yielded a pKd [15] of 7.57.

`NC[C@H]1O[C@H](O[C@H]2[C@H](NCCCCCCCCNC(=O)c3cc4c(cn3)[nH]c3ccccc34)[C@@H](O)[C@H](N)C[C@@H]2N)[C@H](N)[C@@H](O)C1O` (single isomer, unassigned) showed an IC50 (Pseudomonas aeruginosa [16]) of 85.4 µg/mL (≈ 133 µM).

Work on `NC[C@H]1O[C@H](O[C@H]2[C@H](O)[C@@H](O)[C@H](N)C[C@@H]2N)[C@H](N)[C@@H](O)[C@@H]1O` [NEAMINE] yielded an MIC [2] of 3.3 µg/mL (≈ 10.2 µM), an MIC [3] of 5 µg/mL (≈ 15.5 µM) and an MIC (Klebsiella pneumoniae [4]) of 0.5 µg/mL (≈ 1.55 µM). It also gave an MIC (Proteus vulgaris) of under 0.33 µg/mL, an MIC [5] of 1 µg/mL (≈ 3.1 µM) and an MIC (Escherichia coli [6]) of 1 µg/mL (≈ 3.1 µM). For the same compound, the MIC (Bacillus subtilis) was 1 µg/mL (≈ 3.1 µM), the MIC [7] was 0.17 µg/mL (≈ 0.527 µM) and the MIC (Staphylococcus aureus [8]) was 0.13 µg/mL (≈ 0.403 µM).
